Earlier results, collected in patent US20050131071A1, “Orodispersible pharmaceutical composition of agomelatine” (priority 2003, published 2005).

Settings: humans; oral route in relation to the parenteral route

## COc1ccc2cccc(CCNC(C)=O)c2c1 [agomelatine, N-[2-(7-methoxy-1-naphthyl)ethyl]acetamide]
  bioavailability by the oral route: very low
